According to PubChem BioAssay AID292 (DTP/NCI, 2004):
Where “and” joins values, the source holds several entries; their conditions need not be identical. Identical values can stand only once. Toxic doses and inconclusive results are not listed. The calls were made as follows: active = survival T/C of 150% or more; inactive = T/C below 125% in these data.

Tested on: B6C3F1 mice, ip Sarcoma M5076, median survival T/C
Test: NCI In Vivo Anticancer Drug Screen. Data for tumor model Sarcoma M5076 (intraperitoneal) in B6C3F1 mice
Conditions: endpoint: median survival time, higher = longer survival
Method in brief: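 The readout is a ratio of survival in drug-treated animals to survival in animals given vehicle alone, taken in mice bearing a transplanted tumour line.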

[1] = dose: 25.0 mg/kg/injection, schedule: Q04DX004 (ip), vehicle: saline with Tween-80
[2] = dose: 50.0 mg/kg/injection, schedule: Q04DX004 (ip), vehicle: saline with Tween-80
[3] = dose: 100.0 mg/kg/injection, schedule: Q04DX004 (ip), vehicle: saline with Tween-80
[4] = dose: 50.0 mg/kg/injection, schedule: Q04DX004 (ip), vehicle: Klucel (hydroxypropylcellulose) (HPC)
[5] = dose: 200.0 mg/kg/injection, schedule: Q04DX004 (ip), vehicle: saline with Tween-80

Measured: T/C

O=C1NCC(Br)C(=O)N1 (stereo not drawn)
inactive: dose: 50.0 mg/kg/injection, schedule: Q04DX004 (ip), vehicle: saline + Tween-80 + alcohol 95 % of control | dose: 100.0 mg/kg/injection, schedule: Q04DX004 (ip), vehicle: saline + Tween-80 + alcohol 97 % of control | dose: 200.0 mg/kg/injection, schedule: Q04DX004 (ip), vehicle: saline + Tween-80 + alcohol 94 % of control | dose: 400.0 mg/kg/injection, schedule: Q04DX004 (ip), vehicle: saline + Tween-80 + alcohol 120 % of control

CSc1c(N(C)C)c(=O)c1=S
inactive: dose: 12.5 mg/kg/injection, schedule: Q04DX004 (ip), vehicle: saline with Tween-80 102 % of control | [1] 103 % of control | [2] 98 % of control | [3] 93 % of control

COC(=O)C12OCC34C(CC5C(C)C6=CC(=O)OC6=CC5(C)C3C(O)C1O)OC(=O)C(O)C24 (stereo not drawn)
inactive: dose: 0.25 mg/kg/injection, schedule: Q04DX003 (ip), vehicle: Klucel (hydroxypropylcellulose) (HPC) 107 % of control | dose: 0.43 mg/kg/injection, schedule: Q04DX003 (ip), vehicle: Klucel (hydroxypropylcellulose) (HPC) 107 % of control | dose: 0.5 mg/kg/injection, schedule: Q04DX004 (ip), vehicle: Klucel (hydroxypropylcellulose) (HPC) 111 % of control and 113 % of control | dose: 0.72 mg/kg/injection, schedule: Q04DX003 (ip), vehicle: Klucel (hydroxypropylcellulose) (HPC) 103 % of control | dose: 1.0 mg/kg/injection, schedule: Q04DX004 (ip), vehicle: Klucel (hydroxypropylcellulose) (HPC) 116 % of control and 122 % of control | dose: 1.2 mg/kg/injection, schedule: Q04DX003 (ip), vehicle: Klucel (hydroxypropylcellulose) (HPC) 110 % of control | dose: 2.0 mg/kg/injection, schedule: Q04DX003 (ip), vehicle: Klucel (hydroxypropylcellulose) (HPC) 112 % of control | dose: 2.0 mg/kg/injection, schedule: Q04DX004 (ip), vehicle: Klucel (hydroxypropylcellulose) (HPC) 123 % of control | dose: 4.0 mg/kg/injection, schedule: Q04DX004 (ip), vehicle: Klucel (hydroxypropylcellulose) (HPC) 116 % of control

NC(=O)C(N)C(F)c1ccccc1 (stereo not drawn)
inactive: dose: 31.25 mg/kg/injection, schedule: Q04DX004 (ip), vehicle: saline with Tween-80 100 % of control | dose: 62.5 mg/kg/injection, schedule: Q04DX004 (ip), vehicle: saline with Tween-80 116 % of control | dose: 125.0 mg/kg/injection, schedule: Q04DX004 (ip), vehicle: saline with Tween-80 93 % of control | dose: 250.0 mg/kg/injection, schedule: Q04DX004 (ip), vehicle: saline with Tween-80 96 % of control

N#CC1C(=O)NC(=O)C(C#N)C1c1ccncc1 (stereo not drawn)
inactive: [4] 100 % of control | dose: 100.0 mg/kg/injection, schedule: Q04DX004 (ip), vehicle: Klucel (hydroxypropylcellulose) (HPC) 110 % of control | dose: 200.0 mg/kg/injection, schedule: Q04DX004 (ip), vehicle: Klucel (hydroxypropylcellulose) (HPC) 91 % of control | dose: 400.0 mg/kg/injection, schedule: Q04DX004 (ip), vehicle: Klucel (hydroxypropylcellulose) (HPC) 104 % of control | dose: 800.0 mg/kg/injection, schedule: Q04DX004 (ip), vehicle: Klucel (hydroxypropylcellulose) (HPC) 96 % of control

COc1ccc(O)cc1
inactive: [1] 102 % of control | [2] 98 % of control | [3] 105 % of control | [5] 113 % of control

O=c1cc(-c2ccccc2)[nH]c2c1CCCC2
inactive: dose: 75.0 mg/kg/injection, schedule: Q04DX004 (ip), vehicle: saline with Tween-80 91 % of control | dose: 150.0 mg/kg/injection, schedule: Q04DX004 (ip), vehicle: saline with Tween-80 99 % of control | dose: 300.0 mg/kg/injection, schedule: Q04DX004 (ip), vehicle: saline with Tween-80 106 % of control | dose: 600.0 mg/kg/injection, schedule: Q04DX004 (ip), vehicle: saline with Tween-80 98 % of control

O=C(NNC(=O)c1cccc(C(=O)NNC(=O)c2ccc(Cl)c(Cl)c2)n1)c1ccc(Cl)c(Cl)c1
inactive: dose: 25.0 mg/kg/injection, schedule: Q04DX004 (ip), vehicle: Klucel (hydroxypropylcellulose) (HPC) 102 % of control | [4] 96 % of control

NC(=O)c1[nH]cnc1O
inactive: [2] 102 % of control | [3] 101 % of control and 105 % of control | [5] 100 % of control and 105 % of control | dose: 400.0 mg/kg/injection, schedule: Q04DX004 (ip), vehicle: saline with Tween-80 118 % of control

CCCCCCCCCCCCN1C(C)=CS/C1=C\C=C\c1scc(C)[n+]1CCCCCCCCCCCC
inactive: dose: 0.75 mg/kg/injection, schedule: Q04DX004 (ip), vehicle: saline with Tween-80 119 % of control | dose: 1.5 mg/kg/injection, schedule: Q04DX004 (ip), vehicle: saline with Tween-80 116 % of control

CCC(/C=C/C1OC(=O)C=CC1C)=C\C(C)C/C=C/C(C)=C/C(C)C(=O)C(C)C(O)C(C)C/C(C)=C/C(=O)O (stereo not drawn)
inactive: dose: 25.0 micrograms/kg/injection, schedule: Q04DX004 (ip), vehicle: other 104 % of control | dose: 25.0 micrograms/kg/injection, schedule: Q04DX004 (ip), vehicle: saline 110 % of control and 111 % of control | dose: 25.0 micrograms/kg/injection, schedule: Q04DX004 (iv), vehicle: saline 101 % of control | dose: 50.0 micrograms/kg/injection, schedule: Q04DX004 (ip), vehicle: other 114 % of control | dose: 50.0 micrograms/kg/injection, schedule: Q04DX004 (ip), vehicle: saline 109 % of control and 114 % of control | dose: 50.0 micrograms/kg/injection, schedule: Q04DX004 (iv), vehicle: saline 104 % of control | dose: 100.0 micrograms/kg/injection, schedule: Q04DX004 (ip), vehicle: other 121 % of control | dose: 100.0 micrograms/kg/injection, schedule: Q04DX004 (ip), vehicle: saline 124 % of control | dose: 100.0 micrograms/kg/injection, schedule: Q04DX004 (iv), vehicle: saline 110 % of control | dose: 100.0 micrograms/kg/injection, schedule: Q04DX004 (sc), vehicle: other 106 % of control | dose: 200.0 micrograms/kg/injection, schedule: Q04DX004 (ip), vehicle: other 121 % of control | dose: 200.0 micrograms/kg/injection, schedule: Q04DX004 (ip), vehicle: saline 124 % of control | dose: 200.0 micrograms/kg/injection, schedule: Q04DX004 (iv), vehicle: saline 102 % of control | dose: 200.0 micrograms/kg/injection, schedule: Q04DX004 (sc), vehicle: other 106 % of control | dose: 400.0 micrograms/kg/injection, schedule: Q04DX004 (iv), vehicle: saline 105 % of control | dose: 400.0 micrograms/kg/injection, schedule: Q04DX004 (sc), vehicle: other 106 % of control | dose: 800.0 micrograms/kg/injection, schedule: Q04DX004 (iv), vehicle: saline 116 % of control | dose: 800.0 micrograms/kg/injection, schedule: Q04DX004 (sc), vehicle: other 119 % of control
active: dose: 25.0 micrograms/kg/injection, schedule: Q04DX004 (ip), vehicle: saline + alcohol 162 % of control | dose: 50.0 micrograms/kg/injection, schedule: Q04DX004 (ip), vehicle: saline + alcohol 163 % of control and 175 % of control | dose: 100.0 micrograms/kg/injection, schedule: Q04DX004 (ip), vehicle: saline + alcohol 166 % of control and 188 % of control | dose: 200.0 micrograms/kg/injection, schedule: Q04DX004 (ip), vehicle: saline + alcohol 184 % of control and 195 % of control | dose: 400.0 micrograms/kg/injection, schedule: Q04DX004 (ip), vehicle: other 152 % of control | dose: 400.0 micrograms/kg/injection, schedule: Q04DX004 (ip), vehicle: saline + alcohol 163 % of control and 184 % of control and 195 % of control | dose: 800.0 micrograms/kg/injection, schedule: Q04DX004 (ip), vehicle: saline + alcohol 191 % of control and 217 % of control | dose: 800.0 micrograms/kg/injection, schedule: Q04DX004 (ip), vehicle: saline 152 % of control

CN(C)[C@@H]1C(=O)C(C(=O)NCN2CCN(C(=N)N=C(N)N)CC2)=C(O)[C@@]2(O)C(=O)C3=C(O)c4c(O)cccc4[C@@](C)(O)[C@H]3C[C@@H]12
inactive: dose: 0.31 mg/kg/injection, schedule: Q04DX004 (ip), vehicle: saline 105 % of control | dose: 0.62 mg/kg/injection, schedule: Q04DX004 (ip), vehicle: saline 102 % of control | dose: 1.25 mg/kg/injection, schedule: Q04DX004 (ip), vehicle: saline 102 % of control | dose: 1.8 mg/kg/injection, schedule: Q04DX004 (ip), vehicle: suspension in saline 94 % of control | dose: 2.5 mg/kg/injection, schedule: Q04DX004 (ip), vehicle: saline 95 % of control | dose: 3.0 mg/kg/injection, schedule: Q04DX004 (ip), vehicle: suspension in saline 90 % of control | dose: 5.0 mg/kg/injection, schedule: Q04DX004 (ip), vehicle: saline 106 % of control | dose: 5.0 mg/kg/injection, schedule: Q04DX004 (ip), vehicle: suspension in saline 93 % of control | dose: 8.33 mg/kg/injection, schedule: Q04DX004 (ip), vehicle: suspension in saline 91 % of control | dose: 13.88 mg/kg/injection, schedule: Q04DX004 (ip), vehicle: suspension in saline 94 % of control
